The record followed here is patent US20070077283A1, “METHOD OF ENHANCING TRANSMUCOSAL DELIVERY OF THERAPEUTIC COMPOUNDS” (Nastech Pharmaceutical Company Inc., priority 2005, published 2007).

For data set [1], the system named is human-derived tracheal/bronchial epithelial cells (EpiAirway Tissue Model). Nature of the data set: Transepithelial electrical resistance (TER) of an epithelial cell monolayer. It counts as cell-based. Particulars: for % Original TER: lipid / PYY 10 mg/mL. How it is done: Inserts are feed for each day of recovery. TER measurements were accomplished using the Endohm-12 Tissue Resistance Measurement Chamber connected to the EVOM Epithelial Voltohmmeter (World Precision Instruments, Sarasota, Fla.) with the electrode leads. The electrodes and a tissue culture blank insert were equilibrated for at least 20 minutes in MatTek medium with the power off prior to checking calibration. The background resistance was measured with 1.5 ml media in the Endohm tissue chamber and 300 μl media in the blank insert. The top electrode was adjusted so that it was close to, but not making contact with, the top surface of the insert membrane. Background resistance of the blank insert was about 5-20 ohms. […] TER values are a function of the surface area of the tissue. […] By this method of calculation, TER will be expressed as both Ohms*cm2 and percent original TER value. […] Several different lipid types (see Table 1) were screened to select for lipids that are capable of enhancing the permeation of a biological agent across an epithelial cell monolayer. […] A reduction in TER correlates with the ability to enhance the permeation of a molecule and biological agent across an epithelia.

For data set [2] the test system is unchanged. The experiment in a line: in vitro. The method, then: Normal, human-derived tracheal/bronchial epithelial cells will serve as the model cell system for assessing the lipids listed in Table 1. The cells are supplied by MatTek Corp. (Ashland, Mass.) as the EpiAirway™ Tissue Model. The cells are provided as a confluent monolayer on a Millipore Milicell-CM cell culture insert with a pore size of 0.4 μM, inner diameter of 0.8 cm and surface area of 0.6 cm^2 and comprised of transparent hydrophilic Teflon (PTFE). Upon receipt, the membranes are cultured in 1 ml basal media (phenol red-free and hydrocortisone-free Dulbecco's Modified Eagle's Media (DMEM) at 37° C./5% CO2 for 24-48 hours before use. Inserts are feed for each day of recovery.
The amount of cell death was assayed by measuring the loss of lactate dehydrogenase (LDH) from the cells using a CytoTox 96 Cytotoxicity Assay Kit (Promega Corp., Madison, Wis.). A treatment of 1% Octylphenolpoly(ethyleneglycolether)x (Triton X-100™) diluted in PBS was used as a lysis control. One percent Triton X-100™ mediated cell lysis was normalized to 100%. For basal-lateral LDH levels, triplicates of 50 μl of the basal media were loaded into a 96-well assay plate. For apical LDH levels, 150 μl of Epi-Cm was added to the apical side of each chamber and mixed by pipeting. One hundred and fifty microliters was then removed and diluted 2-fold prior to performing the LDH assay. All apical LDH assay were performed in triplicate and with 50 μl of the diluted test solution. Fresh, cell-free culture medium will be used as a blank. Total LDH levels were determined by lysing cells in a final concentration of 0.9% Triton-X100™. Fifty microliters of substrate solution was added to each well and the plates incubated for 30 minutes at room temperature in the dark. Following incubation, 50 μl of stop solution was added to each well and the plates read on an optical density plate reader at […]. Cytotoxicity was expressed as a percentage calculated by subtracting the average absorbance of the PBS control wells as the endogenously released LDH level and expressing that value relative to the average Triton-X100 control, which represents total LDH content. [formula] Osmolality
For the instant application, phosphate buffered saline (PBS) served as a negative control for both the TER assay and LDH (cytotoxicity) assay. […] TER measurements and LDH levels were taken immediately after a one hour treatment of the cultured cells with each lipid, unless specified otherwrise.
TER reduction was expressed as the percent decrease in TER value from time zero to one hour post-treatment. Thus, greater percent reduction in TER represents less electrical resistance across the epithelial cell monolayer and consequently greater epithelial cell permeation. Cytotoxicity (LDH levels) for each lipid was expressed as a percent of the LDH levels measured after Triton-X100 treatment of the cells. Triton-X100™ LDH levels were normalized to 100%.

Data set [3] shares this test system. The experiment in a line: FITC-Dextran permeation assay across epithelial cell monolayer. The data set is classed as cell-based. Particulars: for Mean % FD3 Permeation: FITC-dextran 3000 (Table 4); for permeation of FD3 relative to negative controls: text summary of Table 4. How it is done:
Each tissue insert was placed in an individual well containing 1 ml of MatTek basal media. On the apical surface of the inserts, 20 μl of test formulation was applied according to study design, and the samples were placed on a shaker (˜100 rpm) for 1.5 hours at 37° C. FITC-labeled dextran solution was added to inserts apically and a fluorescence measurement was taken from the basolateral media after the incubation period. Two hundred microliters of the basal media for each test formulation was transferred to a dark-wall fluorescent reading plate. Each test formulation was tested in triplicate. Fluorescent intensity was measured at 470 nM with the microplate fluorescence reader FLx800 (Bio-Tek Instruments, Inc., Winooski, Vt.). A FITC labeled dextran with a molecular weight of 3 kDA, 10 kDA, 20 kDA, 40 kDA, 70 kDA and/or 500 kDA was used to assess the ability of individual lipids to deliver a model protein across an epithelia.
(§1) Permeation is expressed as percent permeation and was calculated as follows: [formula] [formula] Terms
PBS and 0.3% Triton-X100™ served as […]. […] FD permeation was presented as the percent of FD that crossed from the apical side of the epithelial cell monolayer to the basolateral cell surface.

Data set [4] has the same test system. Nature of the data set: Cell viability (MTT assay). Particulars: compared with PBS negative control (Example 5). The data set is classed as cell-based. The method, then: Cell viability will be assessed using the MTT assay (MTT-100, MatTek kit). This kit measures the uptake and transformation of tetrazolium salt to formazan dye. Thawed and diluted MTT concentrate is prepared 1 hour prior to the end of the dosing period with the lipid by mixing 2 mL of MTT concentrate with 8 mL of MTT diluent. Each cell culture insert is washed twice with PBS containing Ca^+2 and Mg^+2 and then transferred to a new 96-well transport plate containing 100 μL of the mixed MTT solution per well. This 96-well transport plate is then incubated for three hours at 37° C. and 5% CO2. After the three hour incubation, the MTT solution is removed and the cultures are transferred to a second 96-well feeder tray containing 250 μL MTT extractant solution per well. An additional 150 μL of MTT extractan solution was added to the surface of each culture well and the samples sat at room temperature in the dark for a minimum of two hours and maximum of 24 hours. The insert membrane was then pierced with a pipet tip and the solutions in the upper and lower wells were allowed to mix. Two hundred microliters of the mixed extracted solution along with extracted blanks (negative control) was transferred to a 96-well plate for measurement with a microplate reader. The optical density (OD) of the samples was measured at 570 nm with the background subtraction at 650 nm on a plate reader. Cell viability was expressed as a percentage and calculated by dividing the OD readings for treated inserts by the OD readings for the PBS treated inserts and multiplying by 100. For the purposes of this assay, it was assumed that PBS had no effect on cell viability and therefore represented 100% cell viability.
(In general: Tetrazolium dyes change colour on reduction, which living cells bring about.)

The test system is the same in data set [5]. Nature of the data set: Peptide YY (PYY) permeation across epithelial cell monolayer. It counts as cell-based. Particulars: lipid / PYY 10 mg/mL. How it is done: as §1
In the instant example, the ability of permeation enhancing lipids to enhance the permeation of the biological agent, peptide YY (PYY; molecular weight of 3.7 kDa) across the epithelial cell monolayer model system (EpiAirway™) was measured. Also, the efficacy of a permeation enhancing lipid to enhance the permeation of insulin across and epithelial cell layer was measured. Refer to Example 2 of the instant application for general protocol details.

Turning to `CCCCCCCCCCCCCCCCOC[C@H](COP(=O)([O-])OCC[N+](C)(C)C)OC(=O)CCCCCCCC(=O)O` [Azelaoyl PAF (C16-09:0), 1-O-Hexadecyl-2-Azelaoyl-sn-Glycero-3-Phosphocholine], in data set [1] (Homo sapiens, Epithelial cell, 1 h, lipid 1000 μM, lower value = greater TER reduction (Table 4), read-out: Mean % of Original TER Value), the activity at 1000 µM is -5%. The “Mean TER Reduction 1 hr. Post-treatment” value came out at 41% in data set [1] (lipid 62.5 μM); 76% in data set [1] (lipid 125 μM); 93% in data set [1] (lipid 250 μM); 93% in data set [1] (lipid 500 μM); 95% in data set [1] (lipid 1000 μM, percent decrease in TER from time zero). Besides, in data set [2] (human, 1 h), the LDH levels result was “below 30%”. Besides, the “Cytotoxic Effect (LDH) 1 hr. Post-treatments” value in data set [2] (human, 1 h, 62.5 μM) turned out to be 2%; in data set [2] (human, 1 h, 125 μM), 5%; in data set [2] (human, 1 h, 250 μM), 10%; in data set [2] (human, 1 h, 500 μM) it was 16%; in data set [2] (human, 1 h, 1000 μM) it was 26%. Further, in data set [2] (human, 1 h, 1000 μM), the “Mean % Relative Cytotoxic Effect (LDH)” value was 3%. Also, in data set [3] (lipid 250 μM (Table 5)), the “% FITC-Dextran Permeation FD3” value amounted to 1%. In data set [3] (lipid 1000 μM), the “Mean % FD3 Permeation” value turned out to be 9%. In addition, in data set [3], the “permeation of FD3 relative to negative controls” value was “enhanced the permeation of FD3 above that of the negative controls”. The “MTT levels (cell viability)” value in data set [4] was “MTT levels comparable to that of the PBS negative control”.
Turning to `CCCCCCCCCCCCCCCCOC[C@H](COP(=O)([O-])OCCCCCC[N+](C)(C)C)OC(C)=O` [PAF-antagonist, 1-O-Hexadecyl-2-O-Acetyl-sn-Glycero-3-Phospho(N,N,N-trimethyl) Hexanolamine], the “Mean % of Original TER Value” in data set [1] (lipid 500 μM (Table 4)) stood at 20%; in data set [1] (lipid 1000 μM, lower value = greater TER reduction (Table 4)), 9%. Also, the “% Original TER” value was “reduced TER below that of the positive control PN159 and equivalent to the positive control Special Sauce” in data set [1]; 2% in data set [1] (listed as PAF-antangonist). Also, the “Mean % Relative Cytotoxic Effect (LDH)” value stood at 8% in data set [2] (lipid 500 μM (Table 4)) and 10% in data set [2] (lipid 1000 μM (Table 4)). Also, the “Mean % FD3 Permeation” value in data set [3] (lipid 500 μM) was found to be 6%; in data set [3] (lipid 1000 μM), 11%. In addition, the “% FITC-Dextran Permeation FD10” value in data set [3] (lipid 1000 μM) is on record as 5%. For the same compound, the “% FITC-Dextran Permeation FD40” value in data set [3] (lipid 1000 μM) is 2%. Moreover, the “% FITC-Dextran Permeation FD3” value in data set [3] (lipid 1000 μM (Table 5)) is given as 11%. In addition, the “permeation of FD3 relative to negative controls” value in data set [3] is listed as “enhanced the permeation of FD3 above that of the negative controls”. The figures for the “% PYY Permeation” value in data set [5] and in data set [5] (listed as PAF-antangonist) were “enhanced permeation of PYY equivalent to or above the positive control PN159” and 2.4%, respectively.
